Data: ChEMBL document CHEMBL1201862, “PubChem BioAssay data set” (2004)
Where a name gives a salt, the structure may show the parent alone. Activity calls are given as the source filed them.

Columns and labels:
[1] = target: T1, RNA-editing ligase 1, mitochondrial (Trypanosoma brucei brucei, UniProt P86926); test: inhibition of trypanosome RNA editing ligase – biochemical, fluorescence, Trypanosoma brucei, dose response (AID 1117295); type: functional
T1 sequence (P86926 whole entry): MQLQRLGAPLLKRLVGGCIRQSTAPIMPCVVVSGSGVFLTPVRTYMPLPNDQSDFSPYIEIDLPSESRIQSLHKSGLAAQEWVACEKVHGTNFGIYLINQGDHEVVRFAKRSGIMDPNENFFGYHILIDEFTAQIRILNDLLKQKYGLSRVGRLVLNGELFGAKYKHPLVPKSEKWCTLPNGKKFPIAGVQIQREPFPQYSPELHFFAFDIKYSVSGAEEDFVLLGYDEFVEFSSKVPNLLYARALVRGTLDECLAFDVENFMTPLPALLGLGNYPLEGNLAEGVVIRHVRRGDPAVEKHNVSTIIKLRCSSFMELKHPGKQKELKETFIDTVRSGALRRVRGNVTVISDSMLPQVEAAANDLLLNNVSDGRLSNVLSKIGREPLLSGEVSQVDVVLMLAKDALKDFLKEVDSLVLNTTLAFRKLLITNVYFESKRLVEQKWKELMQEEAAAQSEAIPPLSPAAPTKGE

[2] = Reduced DLD-1 viability, concentration-response, CellTiter-Glo luminescence (AID 1117352); type: functional
[3] = cytotoxicity toward HT-29 cells – cell-based, CellTiter-Glo luminescence, IC50, dose response (AID 1117330); type: functional
[4] = RKO cell viability reduction, dose response, CellTiter-Glo luminescence (AID 1117322); type: functional
[5] = cytotoxicity toward HCT116 cells – cell-based, CellTiter-Glo luminescence, IC50, dose response (AID 1117332); type: functional; settings: HCT-116
[6] = CellTiter-Glo luminescence survival assay, SW480 colon tumor line, concentration-response curve, half-maximal inhibitory concentration (AID 1117338); type: functional
[7] = cytotoxicity toward Colo320 cells – cell-based, CellTiter-Glo luminescence, IC50, dose response (AID 1117334); type: functional; settings: COLO 320
HEK293 = test: EBV LMP1 TES2 canonical NF-kB signalling blockers – cell-based, HEK293, luciferase, cherry-pick, dose response (AID 588343); type: functional; settings: Homo sapiens
[8] = target: T2, Nuclear receptor subfamily 0 group B member 1 (Homo sapiens, UniProt P51843); type: functional, cell-based;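 note: HEK293T cells transfected with SF-1 and DAX-1 plus StAR promoter luciferase reporter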
T2 sequence (P51843 whole entry): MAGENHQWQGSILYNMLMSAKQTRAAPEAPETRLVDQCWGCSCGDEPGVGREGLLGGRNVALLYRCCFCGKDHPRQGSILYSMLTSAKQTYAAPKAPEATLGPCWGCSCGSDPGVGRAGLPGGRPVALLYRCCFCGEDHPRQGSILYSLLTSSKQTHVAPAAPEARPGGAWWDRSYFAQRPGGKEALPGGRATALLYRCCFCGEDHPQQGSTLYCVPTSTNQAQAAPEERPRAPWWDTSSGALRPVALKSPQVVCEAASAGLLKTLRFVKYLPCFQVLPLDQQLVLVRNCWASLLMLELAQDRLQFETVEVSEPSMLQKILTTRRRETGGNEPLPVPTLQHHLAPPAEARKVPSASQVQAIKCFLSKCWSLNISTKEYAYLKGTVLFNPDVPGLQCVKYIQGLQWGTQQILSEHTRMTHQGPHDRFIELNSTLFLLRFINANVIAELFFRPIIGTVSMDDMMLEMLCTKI

cells [9] = type: functional, cell-based
[10] = Luminescence Cell-Based Dose Response HTS to Identify Inhibitors of 5'UTR Stem-Loop Driven Prion Protein mRNA Translation in H4 Neuroglioblastoma Cells. [Related pubchem assays: 1827 (Project Summary), 1813 (Primary HTS)]; type: functional
[11] = alpha-synuclein stem-loop luciferase translation blockers – H4 neuroglioma cells, luminescence, confirmation (AID 1988); type: functional, cell-based
[12] = luciferase reporter signal suppression in cells – H4 neuroglioma cells, luminescence, dose response (AID 1990); type: functional, cell-based
[13] = inhibition of ADAM10 peptide cleavage – biochemical, FRET peptide substrate, recombinant human ADAM10, selectivity assay for ADAM17 exosite inhibitor project, dose response (AID 743259);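 note: ADAM10 enzyme cleaving a FRET peptide substrate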
[14] = target: Sphingosine 1-phosphate receptor 2 (Homo sapiens, UniProt O95136); test: Dose Response Cell Based Assay for Antagonists of the S1P2 Receptor. [Related pubchem assays: 856, 736 ]; type: functional
fMet-Leu-Phe receptor = target: T3, fMet-Leu-Phe receptor (Homo sapiens, UniProt P21462); test: formyl peptide receptor binders – dose response (AID 519); type: functional
T3 sequence (P21462 whole entry): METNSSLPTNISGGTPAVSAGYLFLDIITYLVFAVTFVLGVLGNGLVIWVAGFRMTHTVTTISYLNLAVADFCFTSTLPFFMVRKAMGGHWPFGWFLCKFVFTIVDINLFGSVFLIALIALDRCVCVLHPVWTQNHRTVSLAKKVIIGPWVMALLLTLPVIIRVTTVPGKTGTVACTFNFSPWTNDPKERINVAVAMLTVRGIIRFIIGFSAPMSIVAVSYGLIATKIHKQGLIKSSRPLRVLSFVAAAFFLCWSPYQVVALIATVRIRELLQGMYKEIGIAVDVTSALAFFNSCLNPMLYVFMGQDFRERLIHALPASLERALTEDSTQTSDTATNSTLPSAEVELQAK

[15] = HIV-1 AD8 envelope cell-cell fusion blockers – cherry-pick, dose response (AID 652062); type: functional, cell-based;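 note: luciferase signal from cell-cell fusion driven by HIV-1 clade B AD8 Env; potency is for inhibitors of fusion seen as a drop in luminescence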
[16] = blockers of HIV-1 envelope-mediated cell-cell fusion – cherry-pick, dose response (AID 652057); type: functional, cell-based
[17] = viability loss in CEM21 cells – cell-based, CellTiter-Glo luminescence, cherry-picked, cytotoxicity control for viral fusion inhibitor project, dose response (AID 652042); type: functional;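 note: potency for signal decrease meaning cytotoxicity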
[18] = blockers of HIV-1 ZM109 envelope-driven cell-cell fusion – HeLa effector, CEM target cells, luciferase, cherry-pick, dose response (AID 652058); type: functional, cell-based;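 note: luciferase signal from HIV-1 Env mediated cell-cell fusion of effector and target cells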
cells [19] = type: functional, cell-based; remark: listed apart in the source
cells [20] = type: functional, cell-based; remark: listed apart in the source
[21] = target: T4, Heat shock factor protein 1 (Mus musculus, UniProt P38532); test: decrease of HSF1-responsive luciferase luminescence – cell-based, NIH3T3, dose retest, confirmation (AID 2382); type: functional;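 note: NIH3T3 fibroblasts with HSF1-driven luciferase reporter stressed by proteasome inhibitor MG132; luminescence from HSF1-driven luciferase expression after 8 hours of MG132 stress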
T4 sequence (P38532 whole entry): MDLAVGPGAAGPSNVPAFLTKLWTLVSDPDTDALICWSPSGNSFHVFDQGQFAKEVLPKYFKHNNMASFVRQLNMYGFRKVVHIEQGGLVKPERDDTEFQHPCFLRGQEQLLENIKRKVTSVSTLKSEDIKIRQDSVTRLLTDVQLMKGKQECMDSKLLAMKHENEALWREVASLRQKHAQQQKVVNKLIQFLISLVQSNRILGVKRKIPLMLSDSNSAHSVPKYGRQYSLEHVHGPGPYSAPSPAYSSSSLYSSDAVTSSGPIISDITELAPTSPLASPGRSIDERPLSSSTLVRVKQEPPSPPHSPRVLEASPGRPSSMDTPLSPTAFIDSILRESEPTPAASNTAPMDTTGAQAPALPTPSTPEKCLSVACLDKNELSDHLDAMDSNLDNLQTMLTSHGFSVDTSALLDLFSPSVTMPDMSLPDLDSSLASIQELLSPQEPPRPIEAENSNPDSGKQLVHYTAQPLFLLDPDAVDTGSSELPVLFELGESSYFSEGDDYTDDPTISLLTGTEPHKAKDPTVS

[22] = Counterscreen for activators of the function of SWI/SNF related, matrix associated, actin dependent regulator of chromatin, subfamily a, member 2 (SMARCA2, BRM): Luminescence-based cell-based high throughput dose response assay to identify non-selective compounds using the VP16 reporter assay.; type: functional
[23] = target: T5, Adenosylmethionine-8-amino-7-oxononanoate aminotransferase (Mycobacterium tuberculosis, UniProt P9WQ81); test: Mycobacterium tuberculosis BioA enzyme inhibitor Measured in Biochemical System Using Plate Reader - 2163-02_Inhibitor_Dose_CherryPick_Activity.; type: functional, Mycobacterium tuberculosis UT205
T5 sequence (P9WQ81 whole entry): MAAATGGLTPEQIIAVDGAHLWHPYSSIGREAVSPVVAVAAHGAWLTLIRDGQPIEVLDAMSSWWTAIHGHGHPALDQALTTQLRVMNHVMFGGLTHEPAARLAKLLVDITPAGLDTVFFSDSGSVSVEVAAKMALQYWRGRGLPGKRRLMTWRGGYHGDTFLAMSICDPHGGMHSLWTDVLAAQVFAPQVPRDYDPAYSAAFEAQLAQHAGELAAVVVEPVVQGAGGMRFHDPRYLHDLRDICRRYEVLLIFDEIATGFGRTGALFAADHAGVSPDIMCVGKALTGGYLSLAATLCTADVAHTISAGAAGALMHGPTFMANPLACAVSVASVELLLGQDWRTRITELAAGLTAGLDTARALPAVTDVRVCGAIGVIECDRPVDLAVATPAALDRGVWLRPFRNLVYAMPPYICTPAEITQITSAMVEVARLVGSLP

[24] = target: SWI/SNF-related matrix-associated actin-dependent regulator of chromatin subfamily A member 2 (Homo sapiens, UniProt P51531); test: Luminescence-based cell-based high throughput dose response assay to identify activators of the function of SWI/SNF related, matrix associated, actin dependent regulator of chromatin, subfamily a, member 2 (SMARCA2, BRM).; type: functional
cells [25] = type: functional, cell-based; remark: listed apart in the source
cells [26] = type: functional, cell-based; remark: listed apart in the source
[27] = Luminescence Cell-Based Dose Retest to Confirm Inhibitors of Cancer Stem Cells. [Related pubchem assays (depositor defined):AID2717, AID2721]; type: functional; settings: Homo sapiens
[28] = viability loss in THP-1 monocytes – THP-1 cells, cytotoxicity control for Vif-APOBEC3G degradation inhibitor project, dose response (AID 1117359); type: functional; settings: THP-1

Sphingosine 1-phosphate receptor 2, sequence (O95136 whole entry): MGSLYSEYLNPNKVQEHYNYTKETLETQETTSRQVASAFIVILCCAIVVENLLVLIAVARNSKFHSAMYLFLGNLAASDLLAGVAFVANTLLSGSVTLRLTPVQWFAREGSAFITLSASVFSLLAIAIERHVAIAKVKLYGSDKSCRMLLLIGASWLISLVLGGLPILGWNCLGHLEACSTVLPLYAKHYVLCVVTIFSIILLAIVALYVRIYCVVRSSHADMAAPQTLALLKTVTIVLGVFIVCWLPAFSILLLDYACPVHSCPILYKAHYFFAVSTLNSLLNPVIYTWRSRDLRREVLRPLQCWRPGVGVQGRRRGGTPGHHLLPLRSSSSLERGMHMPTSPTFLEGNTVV
SWI/SNF-related matrix-associated actin-dependent regulator of chromatin subfamily A member 2, sequence (P51531 whole entry): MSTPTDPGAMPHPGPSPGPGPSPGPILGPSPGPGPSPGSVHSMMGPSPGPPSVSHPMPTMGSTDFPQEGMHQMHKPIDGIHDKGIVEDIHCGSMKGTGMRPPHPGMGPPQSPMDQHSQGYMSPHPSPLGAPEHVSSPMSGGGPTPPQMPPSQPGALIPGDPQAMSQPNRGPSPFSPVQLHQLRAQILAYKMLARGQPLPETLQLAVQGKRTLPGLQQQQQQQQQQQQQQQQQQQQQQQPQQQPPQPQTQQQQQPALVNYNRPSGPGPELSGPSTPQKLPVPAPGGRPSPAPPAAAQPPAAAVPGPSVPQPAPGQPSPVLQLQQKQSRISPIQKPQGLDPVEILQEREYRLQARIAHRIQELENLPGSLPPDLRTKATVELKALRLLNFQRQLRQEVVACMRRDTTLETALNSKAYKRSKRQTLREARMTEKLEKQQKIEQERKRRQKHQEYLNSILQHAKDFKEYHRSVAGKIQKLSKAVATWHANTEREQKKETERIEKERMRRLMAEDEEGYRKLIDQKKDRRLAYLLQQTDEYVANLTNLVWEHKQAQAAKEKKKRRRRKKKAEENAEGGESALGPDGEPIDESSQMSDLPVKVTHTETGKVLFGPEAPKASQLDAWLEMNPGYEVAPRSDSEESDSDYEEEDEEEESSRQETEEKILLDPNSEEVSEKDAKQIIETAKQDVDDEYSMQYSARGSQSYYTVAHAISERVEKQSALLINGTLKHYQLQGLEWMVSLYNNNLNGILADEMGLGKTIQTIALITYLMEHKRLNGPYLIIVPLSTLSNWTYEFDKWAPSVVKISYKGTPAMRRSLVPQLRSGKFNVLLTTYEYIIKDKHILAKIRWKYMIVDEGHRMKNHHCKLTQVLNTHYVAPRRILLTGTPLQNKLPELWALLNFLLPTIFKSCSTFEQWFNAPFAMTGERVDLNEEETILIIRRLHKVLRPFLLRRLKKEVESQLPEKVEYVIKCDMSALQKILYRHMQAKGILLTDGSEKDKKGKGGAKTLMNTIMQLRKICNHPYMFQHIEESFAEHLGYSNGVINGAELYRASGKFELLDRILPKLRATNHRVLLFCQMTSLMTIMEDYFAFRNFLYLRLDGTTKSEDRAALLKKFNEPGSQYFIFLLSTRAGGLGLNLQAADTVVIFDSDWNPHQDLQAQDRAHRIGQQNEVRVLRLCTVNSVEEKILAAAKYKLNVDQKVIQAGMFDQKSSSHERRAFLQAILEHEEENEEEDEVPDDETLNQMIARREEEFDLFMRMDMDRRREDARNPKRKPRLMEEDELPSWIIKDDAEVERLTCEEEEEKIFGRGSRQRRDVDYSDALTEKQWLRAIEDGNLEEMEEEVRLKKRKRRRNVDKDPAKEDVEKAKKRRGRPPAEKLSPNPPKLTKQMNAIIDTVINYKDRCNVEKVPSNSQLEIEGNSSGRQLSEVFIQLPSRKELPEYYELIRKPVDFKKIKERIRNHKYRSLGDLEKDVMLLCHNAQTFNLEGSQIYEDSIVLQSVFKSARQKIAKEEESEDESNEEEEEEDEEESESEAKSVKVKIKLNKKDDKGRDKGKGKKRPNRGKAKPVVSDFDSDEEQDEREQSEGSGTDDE

SMILES: COC(=O)C1=C(C)N(Cc2ccccc2C(F)(F)F)C(NCc2ccccc2)=NC1c1cccc(F)c1 (stereo unspecified)
- IC50 [1]: > 96.6 µM (inactive)

SMILES: CC(C)Nc1nc(NCCOc2ccccc2Cl)c2sc(-c3ccccc3)cc2n1
- IC50 [1]: > 96.6 µM (inactive)

SMILES: CC(C)(C)NCC(O)c1cc(O)cc(O)c1 (stereo unspecified) [TERBUTALINE SULFATE]
- IC50 [2]: > 20 µM (inactive)
- IC50 [3]: > 20 µM (inactive)
- IC50 [4]: > 20 µM (inactive)
- IC50 [5]: > 20 µM (inactive)
- IC50 [6]: > 20 µM (inactive)
- IC50 [7]: > 20 µM (inactive)

SMILES: CC(C)Oc1ccc(C(=O)Nc2nnc(SCC(=O)N3CCOCC3)s2)cc1
- AC50 (HEK293): 0.897 µM (active)
- IC50 [8]: > 67.5 µM (inactive)
- IC50 (cells [9]): > 67.5 µM (inactive)

SMILES: Cc1c(C(=O)OCC(C)C)[nH]c2c1C(=O)CC(c1ccco1)C2 (stereo unspecified)
- EC50 [10]: 1.5 µM (active)
- EC50 [11]: 0.212 µM (active)
- IC50 [8]: > 67.5 µM (inactive)
- EC50 [12]: 1.95 µM (active)
- IC50 (cells [9]): > 67.5 µM (inactive)

SMILES: C[C@H](NC(=O)c1[nH]cnc1C(=O)NC(c1ccccc1)c1ccccc1)C(=O)OCc1ccccc1
- IC50 [13]: > 69.5 µM (inactive)

SMILES: Cc1n[nH]c(C)c1N1C(=O)c2cccc3c(Br)ccc(c23)C1=O
- IC50 [14]: > 75.5 µM (not active)

SMILES: Cc1ccc(F)c(NC(=O)C2CCCCC2C(=O)O)c1 (stereo unspecified)
- Ki (fMet-Leu-Phe receptor): > 66.7 µM (inactive)

SMILES: O=C(C[C@H]1C=C[C@@H](NC(=O)c2cccc(F)c2)[C@@H](CO)O1)NCc1ccc(Oc2ccccc2)cc1
- AC50 [15]: 2.83 µM (active)
- AC50 [16]: 0.988 µM (active)
- AC50 [17]: 46.3 µM (active)
- AC50 [18]: 0.725 µM (active)

SMILES: COc1cccc(-c2nc(CS(=O)(=O)CC(=O)NCCC(C)C)c(C)o2)c1
- Ki (fMet-Leu-Phe receptor): > 66.7 µM (inactive)

SMILES: COc1ccc(C2NC(S)=NC3=C2CCCC3=C2SCCS2)cc1 (stereo unspecified)
- EC50 (cells [19]): > 350 µM (not active)
- EC50 (cells [20]): 10.6 µM (active)
- IC50 [8]: 7.9 µM (active)
- EC50 [21]: > 195 µM (not active)
- IC50 (cells [9]): > 67.5 µM (inactive)

SMILES: CCN(CC)c1ccc2cc(C(=O)c3cccs3)c(=O)oc2c1
- EC50 [22]: > 91 µM (inactive)
- AC50 [23]: 0.195 µM (active)
- EC50 [24]: > 91 µM (inactive)

SMILES: c1ccc(CCN2CN(CCCN3CCOCC3)c3nc4ccccc4n3C2)cc1
- IC50 (cells [25]): > 29.9 µM (inactive)
- EC50 (cells [26]): > 29.9 µM (inactive)

SMILES: Cc1ccc(/C=N/c2ccccc2C(N)=O)s1
- AC50 [27]: 2.44 µM (active)
- CC50 [28]: 2.54 µM (active)
